# Test results published in PubChem BioAssay (NCI).
# “And” between values parts separate entries of the source, which are not always exact repeats. Identical values can stand only once.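 All cell lines were grown in 96-well plates and treated with compound for 48 hours. The concentration for 50% growth inhibition is given as GI50. TGI: total growth inhibition.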
# Columns and labels:
# Experiment in all cases: NCI anticancer screen, dose series, 48 h
# [1] = system: NCI-H23 lung
# [2] = system: HT29 colon
# [3] = system: SK-OV-3 ovarian
# [4] = system: RXF 393 renal
# [5] = system: CAKI-1 renal
# [6] = system: SN12C renal
# [7] = system: NCI-H226 lung
# [8] = system: UACC-257 melanoma
# [9] = system: LOX IMVI melanoma
# [10] = system: MDA-MB-435
smiles,measurement,setting,value
CCOc1ccc2c(c1)[n+]([O-])c(C(N)=O)c(N)[n+]2[O-],TGI,[1],> 100 µM
same,TGI,[2],> 100 µM
same,TGI,[3],> 100 µM
same,TGI,[4],> 100 µM
same,TGI,[5],> 100 µM
same,TGI,[6],> 100 µM
same,TGI,[7],> 100 µM
same,TGI,[8],> 100 µM
[Cu].c1ccc2c(c1)C1=NC2=NC2=NC(=NC3=NC(=NC4=NC(=N1)c1ccccc14)c1ccccc13)c1ccccc12,GI50,[1],> 100 µM
same,TGI,[1],> 100 µM
same,GI50,[9],> 100 µM
same,TGI,[9],> 100 µM
same,GI50,[2],> 100 µM
same,TGI,[2],> 100 µM
same,GI50,[10],> 100 µM
same,TGI,[10],> 100 µM
same,GI50,[3],> 100 µM
same,TGI,[3],> 100 µM
same,GI50,[4],> 100 µM
same,TGI,[4],> 100 µM
same,GI50,[5],> 100 µM
same,TGI,[5],> 100 µM
same,GI50,[6],> 100 µM
same,TGI,[6],> 100 µM
same,GI50,[8],> 100 µM
same,TGI,[8],> 100 µM
CC(C)N1CCOC(c2ccc(O)c(O)c2)C1 (centres undefined),TGI,[1],> 100 µM
same,TGI,[9],> 100 µM
same,TGI,[2],> 100 µM
same,TGI,[3],> 100 µM
same,TGI,[4],> 100 µM
same,TGI,[5],> 100 µM
same,TGI,[6],> 100 µM
same,TGI,[8],> 100 µM
O=C(O)c1c2c(c(O)c3c1CN(C1CCCCC1)CO3)OCN(C1CCCCC1)C2,TGI,[1],> 100 µM
same,TGI,[9],39.7 µM
same,TGI,[2],> 100 µM
same,TGI,[10],> 100 µM
same,TGI,[3],> 100 µM
same,TGI,[4],> 100 µM
same,TGI,[5],> 100 µM
same,TGI,[6],72.9 µM
same,TGI,[8],> 100 µM
Cc1cccc(-c2nc(=S)[nH][nH]2)c1,TGI,[1],> 100 µM
same,TGI,[2],> 100 µM
same,TGI,[3],> 100 µM
same,TGI,[5],> 100 µM
same,TGI,[6],> 100 µM
same,TGI,[7],> 100 µM
same,TGI,[8],> 100 µM
Nc1nc(N)c2cc(S(=O)(=O)c3cccc(C(F)(F)F)c3)ccc2n1,GI50,[1],3.63 µM
same,TGI,[1],> 100 µM
same,GI50,[9],1.53 µM
same,TGI,[9],> 100 µM
same,GI50,[2],2.42 µM
same,TGI,[2],> 100 µM
same,GI50,[10],2.12 µM
same,TGI,[10],> 100 µM
same,GI50,[3],14.8 µM
same,TGI,[3],> 100 µM
same,GI50,[4],3.8 µM
same,TGI,[4],57.8 µM
same,GI50,[5],> 100 µM
same,TGI,[5],> 100 µM
same,GI50,[6],6.34 µM
same,TGI,[6],> 100 µM
same,GI50,[7],21.5 µM
same,TGI,[7],> 100 µM
CC1=NC2(C(=O)O)C3(C(=O)O)N=C(C)OC3(C(F)(F)F)C2(C(F)(F)F)O1 (centres undefined),TGI,[1],> 100 µM
same,TGI,[9],> 100 µM
same,TGI,[2],> 100 µM
same,TGI,[3],> 100 µM
same,TGI,[4],> 100 µM
same,TGI,[5],> 100 µM
same,TGI,[6],> 100 µM
same,TGI,[7],> 100 µM
same,TGI,[8],> 100 µM
CCOc1ccc2c(c1)[n+]([O-])c(-c1ccccc1)c(N)[n+]2[O-],TGI,[1],91.3 µM
same,TGI,[9],> 100 µM
same,TGI,[2],> 100 µM
same,TGI,[3],> 100 µM
same,TGI,[5],89.4 µM
same,TGI,[6],> 100 µM
same,TGI,[7],> 100 µM
same,TGI,[8],> 100 µM
O=S(=O)(c1ccccc1)N1CCC1c1ccccc1 (centres undefined),TGI,[1],> 100 µM
same,TGI,[9],> 100 µM
same,TGI,[2],> 100 µM
same,TGI,[3],> 100 µM
same,TGI,[4],> 100 µM
same,TGI,[6],> 100 µM
same,TGI,[7],> 100 µM
same,TGI,[8],> 100 µM
Cc1cc[c]([Sb]2[O]C(CO)C(C(O)C(O)C(=O)O)[O]2)cc1 (centres undefined),GI50,[1],> 100 µM
same,TGI,[1],> 100 µM
same,GI50,[9],39.9 µM
same,TGI,[9],> 100 µM
same,GI50,[2],46.4 µM
same,TGI,[2],> 100 µM
same,GI50,[10],81.7 µM
same,TGI,[10],> 100 µM
same,GI50,[4],28.2 µM
same,TGI,[4],84.7 µM
same,GI50,[5],> 100 µM
same,TGI,[5],> 100 µM
same,GI50,[6],51.9 µM
same,TGI,[6],> 100 µM
same,GI50,[7],39.9 µM
same,TGI,[7],> 100 µM
O=C1c2ccccc2C(=O)N1C/C=N/NS(=O)(=O)c1cccc([N+](=O)[O-])c1,TGI,[1],> 100 µM
same,TGI,[9],> 100 µM
same,TGI,[2],> 100 µM
same,TGI,[4],> 100 µM
same,TGI,[5],> 100 µM
same,TGI,[6],> 100 µM
same,TGI,[8],> 100 µM
O=c1cc(-c2cccc(Cl)c2)[nH]c2cc3c(cc12)OCO3,GI50,[1],3.37 µM
same,TGI,[1],3.45 µM and 13.2 µM
same,GI50,[9],0.434 µM
same,TGI,[9],38.8 µM and 40.2 µM
same,GI50,[2],3.19 µM
same,TGI,[2],9.41 µM and 15.4 µM
same,TGI,[10],0.193 µM
same,TGI,[3],3.05 µM
same,GI50,[4],0.164 µM and 0.626 µM
same,TGI,[4],75 µM and 9.8 µM
same,GI50,[6],0.522 µM
same,TGI,[6],75 µM and 12.5 µM
same,TGI,[8],> 100 µM
[O-]c1ccccc1C=NCCN=Cc1ccccc1[O-].[O]=[U+2]=[O],GI50,[1],22.6 µM
same,TGI,[1],61.1 µM
same,GI50,[9],22.2 µM
same,TGI,[9],> 100 µM
same,GI50,[2],> 100 µM
same,TGI,[2],> 100 µM
same,GI50,[3],24.3 µM
same,TGI,[3],57 µM
same,GI50,[4],24.1 µM
same,TGI,[4],48.5 µM
same,GI50,[5],> 46.7 µM
same,TGI,[5],> 67.6 µM
same,GI50,[6],28.4 µM
same,TGI,[6],> 63.4 µM
same,GI50,[7],> 42.5 µM
same,TGI,[7],> 63.6 µM
same,GI50,[8],34.5 µM
same,TGI,[8],> 78.1 µM
CCN(CC)CC(C(=O)Nc1c(C)cccc1C)/C(C)=N\NC(=S)NN (centres undefined),TGI,[1],> 100 µM
same,TGI,[9],> 100 µM
same,TGI,[2],> 100 µM
same,TGI,[3],> 100 µM
same,TGI,[4],> 100 µM
same,TGI,[7],> 100 µM
same,TGI,[8],> 100 µM
Cc1cc2c(cc1Cl)SC(=Nc1ccc(Cl)cc1)N(S(=O)(=O)c1ccc(Br)s1)S2(=O)=O,GI50,[1],10.8 µM
same,TGI,[1],25 µM
same,GI50,[9],9.26 µM
same,TGI,[9],24.3 µM
same,GI50,[10],14.1 µM
same,TGI,[10],31.3 µM
same,GI50,[3],34.5 µM
same,TGI,[3],97.1 µM
same,GI50,[5],19.5 µM
same,TGI,[5],42.2 µM
same,GI50,[6],14.1 µM
same,TGI,[6],32.6 µM
same,GI50,[7],14 µM
same,TGI,[7],47.1 µM
same,GI50,[8],16 µM
same,TGI,[8],38.7 µM
COc1ccc(-c2cc(=O)c3c(C)ccnc3[nH]2)cc1,TGI,[1],65.2 µM
same,TGI,[9],> 100 µM
same,TGI,[2],40.5 µM
same,TGI,[3],> 100 µM
same,TGI,[4],41.6 µM
same,TGI,[5],> 100 µM
same,TGI,[6],> 100 µM
same,TGI,[7],> 100 µM
same,TGI,[8],> 100 µM
COc1cccc2c1C(=O)c1c(O)c3c(c(O)c1C2=O)C[C@@](O)(/C(C)=N/NC(=O)c1cccc([N+](=O)[O-])c1)C[C@@H]3OC1CC(N)C(O)C(C)O1 (some centres undefined),GI50,[1],0.316 µM
same,TGI,[1],2.87 µM
same,GI50,[9],0.146 µM
same,TGI,[9],15.4 µM
same,GI50,[2],0.238 µM
same,TGI,[2],11.2 µM
same,GI50,[3],0.374 µM
same,TGI,[3],7.56 µM
same,GI50,[4],0.494 µM
same,TGI,[4],2.21 µM
same,GI50,[5],0.411 µM
same,TGI,[5],2.74 µM
same,GI50,[6],0.233 µM
same,TGI,[6],16.9 µM
same,GI50,[7],0.16 µM
same,TGI,[7],0.714 µM
same,GI50,[8],0.757 µM
same,TGI,[8],3.43 µM
NCCNCCNCc1c2ccccc2c(CNCCNCCN)c2ccccc12,TGI,[1],> 100 µM
same,TGI,[9],> 100 µM
same,TGI,[2],> 100 µM
same,TGI,[3],> 100 µM
same,TGI,[4],> 100 µM
same,TGI,[5],> 100 µM
same,TGI,[6],> 100 µM
same,TGI,[7],> 100 µM
same,TGI,[8],> 100 µM
CSC(=Nc1ccc([N+](=O)[O-])cc1C#N)NC(=O)c1ccccc1,TGI,[1],> 100 µM
same,TGI,[9],> 100 µM
same,TGI,[2],> 100 µM
same,TGI,[4],> 100 µM
same,TGI,[5],> 100 µM
same,TGI,[6],> 100 µM
same,TGI,[7],> 100 µM
same,TGI,[8],> 100 µM
